Source: US20250262201A1, “COMPOUNDS AND METHODS USEFUL FOR STABILIZING PHENYLALANINE HYDROXYLASE MUTATIONS” (Agios Pharmaceuticals, Inc., priority 2022, published 2025)

Biological target: T1, human PAH with the R408W mutation (Homo sapiens, UniProt P00439, R408W)
T1 construct: expressed in transfected cells
T1 sequence (P00439 1-452 R408W): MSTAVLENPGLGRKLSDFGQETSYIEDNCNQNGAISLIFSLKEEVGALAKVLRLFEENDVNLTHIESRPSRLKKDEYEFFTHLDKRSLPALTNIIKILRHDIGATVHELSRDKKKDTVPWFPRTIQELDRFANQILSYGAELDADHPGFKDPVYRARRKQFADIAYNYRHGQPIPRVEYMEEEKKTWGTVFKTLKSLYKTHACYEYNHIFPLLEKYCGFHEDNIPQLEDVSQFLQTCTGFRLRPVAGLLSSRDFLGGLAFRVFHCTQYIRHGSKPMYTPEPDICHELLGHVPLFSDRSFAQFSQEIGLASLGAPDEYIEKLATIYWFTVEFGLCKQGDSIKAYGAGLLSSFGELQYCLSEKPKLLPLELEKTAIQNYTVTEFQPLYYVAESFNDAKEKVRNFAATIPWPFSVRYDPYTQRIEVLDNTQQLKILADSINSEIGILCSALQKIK
Assay: Cell Based Phenylalanine Flux Assay
Details: A375 cells expressing human R408W PAH; 24 hrs compound incubation; 13C-Tyrosine by LC-MS; average where tested multiple times; read-out: AC50

| SMILES | AC50 |
| --- | --- |
| O=C(CC1CC(F)C1)N1CCc2[nH]cnc2[C@H]1c1cn2ccccc2n1 (stereo partly drawn) [Example 254, (R)-2-(3-fluorocyclobutyl)-1-(4-(imidazo[1,2-a]pyridin-2-yl)-6,7-dihydro-1H-imidazo[4,5-c]pyridin-5(4H)-yl)ethanone] | < 500 nM |
| O=C(c1oc(-c2ccccn2)nc1C(F)(F)F)N1CCc2[nH]cnc2[C@H]1c1cn2ccccc2n1 [Example 256, (R)-(4-(imidazo[1,2-a]pyridin-2-yl)-6,7-dihydro-1H-imidazo[4,5-c]pyridin-5(4H)-yl)(2-(pyridin-2-yl)-4-(trifluoromethyl)oxazol-5-yl)methanone] | < 500 nM |
| O=C(CCc1nccs1)N1CCc2[nH]cnc2[C@H]1c1ncc2ccccc2n1 [Example 273, (S)-1-(4-(quinazolin-2-yl)-6,7-dihydro-1H-imidazo[4,5-c]pyridin-5(4H)-yl)-3-(thiazol-2-yl)propan-1-one] | < 500 nM |
| O=C(CCc1nccs1)N1CCc2[nH]cnc2[C@@H]1c1ncc2ccccc2n1 [Example 274, (R)-1-(4-(quinazolin-2-yl)-6,7-dihydro-1H-imidazo[4,5-c]pyridin-5(4H)-yl)-3-(thiazol-2-yl)propan-1-one] | > 5000 nM |
| Cn1nc(C(F)F)nc1C(=O)N1CCc2[nH]cnc2[C@H]1c1ncc2ccccc2n1 [Example 276, (S)-(3-(difluoromethyl)-1-methyl-1H-1,2,4-triazol-5-yl)(4-(quinazolin-2-yl)-6,7-dihydro-1H-imidazo[4,5-c]pyridin-5(4H)-yl)methanone] | < 500 nM |
| O=C(c1oc(-c2ccc(C(F)(F)F)cn2)nc1C(F)F)N1CCc2[nH]cnc2[C@H]1c1ncc2ccccc2n1 [Example 278, (S)-(4-(difluoromethyl)-2-(5-(trifluoromethyl)pyridin-2-yl)oxazol-5-yl)(4-(quinazolin-2-yl)-6,7-dihydro-1H-imidazo[4,5-c]pyridin-5(4H)-yl)methanone] | < 500 nM |
| O=C(c1oc(N2CCC(F)CC2)nc1C(F)F)N1CCc2[nH]cnc2[C@H]1c1ncc2ccccc2n1 [Example 280, (S)-(4-(difluoromethyl)-2-(4-fluoropiperidin-1-yl)oxazol-5-yl)(4-(quinazolin-2-yl)-6,7-dihydro-1H-imidazo[4,5-c]pyridin-5(4H)-yl)methanone] | < 500 nM |
| Cn1cncc1-c1nc(C(F)F)c(C(=O)N2CCc3[nH]cnc3[C@@H]2c2ncc3ccccc3n2)o1 [Example 281, (R)-(4-(difluoromethyl)-2-(1-methyl-1H-imidazol-5-yl)oxazol-5-yl)(4-(quinazolin-2-yl)-6,7-dihydro-1H-imidazo[4,5-c]pyridin-5(4H)-yl)methanone] | 500 to 1000 nM |
| O=C(c1cnco1)N1CCc2[nH]cnc2[C@H]1c1ccc2ccccc2c1 [Example 283, (R)-(4-(naphthalen-2-yl)-6,7-dihydro-1H-imidazo[4,5-c]pyridin-5(4H)-yl)(oxazol-5-yl)methanone] | 500 to 1000 nM |
| O=C(c1cnc(-c2ccccn2)s1)N1CCc2[nH]cnc2[C@H]1c1cc2ccccc2cn1 [Example 300, (R)-(4-(isoquinolin-3-yl)-6,7-dihydro-1H-imidazo[4,5-c]pyridin-5(4H)-yl)(2-(pyridin-2-yl)thiazol-5-yl)methanone] | < 500 nM |
| O=C(c1cnc(-c2ccccn2)s1)N1CCc2[nH]cnc2[C@@H]1c1cc2ccccc2cn1 [Example 301, (S)-(4-(isoquinolin-3-yl)-6,7-dihydro-1H-imidazo[4,5-c]pyridin-5(4H)-yl)(2-(pyridin-2-yl)thiazol-5-yl)methanone] | > 5000 nM |
| Cn1cc(-c2ncc(C(=O)N3CCc4[nH]cnc4[C@H]3c3cc4ccccc4cn3)s2)cn1 [Example 302, (R)-(4-(isoquinolin-3-yl)-6,7-dihydro-1H-imidazo[4,5-c]pyridin-5(4H)-yl)(2-(1-methyl-1H-pyrazol-4-yl)thiazol-5-yl)methanone] | < 500 nM |
| Cn1cc(-c2ncc(C(=O)N3CCc4[nH]cnc4[C@@H]3c3cc4ccccc4cn3)s2)cn1 [Example 303, (S)-(4-(isoquinolin-3-yl)-6,7-dihydro-1H-imidazo[4,5-c]pyridin-5(4H)-yl)(2-(1-methyl-1H-pyrazol-4-yl)thiazol-5-yl)methanone] | > 5000 nM |
| O=C(c1cnc(-c2cnn(CC(F)(F)F)c2)o1)N1CCc2[nH]cnc2[C@@H]1c1cc2ccccc2cn1 [Example 304, (S)-(4-(isoquinolin-3-yl)-6,7-dihydro-1H-imidazo[4,5-c]pyridin-5(4H)-yl)(2-(1-(2,2,2-trifluoroethyl)-1H-pyrazol-4-yl)oxazol-5-yl)methanone] | > 5000 nM |
| O=C(c1cnc(-c2cnn(CC(F)(F)F)c2)o1)N1CCc2[nH]cnc2[C@H]1c1cc2ccccc2cn1 [Example 305, (R)-(4-(isoquinolin-3-yl)-6,7-dihydro-1H-imidazo[4,5-c]pyridin-5(4H)-yl)(2-(1-(2,2,2-trifluoroethyl)-1H-pyrazol-4-yl)oxazol-5-yl)methanone] | < 500 nM |
| O=C(c1cnc(-c2cnn(CC(F)(F)F)c2)s1)N1CCc2[nH]cnc2[C@H]1c1cc2ccccc2cn1 [Example 306, (R)-(4-(isoquinolin-3-yl)-6,7-dihydro-1H-imidazo[4,5-c]pyridin-5(4H)-yl)(2-(1-(2,2,2-trifluoroethyl)-1H-pyrazol-4-yl)thiazol-5-yl)methanone] | 500 to 1000 nM |
| O=C(c1cnc(-c2cnn(CC(F)(F)F)c2)s1)N1CCc2[nH]cnc2[C@@H]1c1cc2ccccc2cn1 [Example 307, (S)-(4-(isoquinolin-3-yl)-6,7-dihydro-1H-imidazo[4,5-c]pyridin-5(4H)-yl)(2-(1-(2,2,2-trifluoroethyl)-1H-pyrazol-4-yl)thiazol-5-yl)methanone] | > 5000 nM |
| O=C(c1cnc(-c2ccccn2)o1)N1CCc2[nH]cnc2[C@H]1c1cc2ccccc2cn1 [Example 308, (R)-(4-(isoquinolin-3-yl)-6,7-dihydro-1H-imidazo[4,5-c]pyridin-5(4H)-yl)(2-(pyridin-2-yl)oxazol-5-yl)methanone] | < 500 nM |
| O=C(c1cnc(-c2ccccn2)o1)N1CCc2[nH]cnc2[C@@H]1c1cc2ccccc2cn1 [Example 309, (S)-(4-(isoquinolin-3-yl)-6,7-dihydro-1H-imidazo[4,5-c]pyridin-5(4H)-yl)(2-(pyridin-2-yl)oxazol-5-yl)methanone] | > 5000 nM |

The next lines start with the values.

| AC50 | SMILES |
| --- | --- |
| < 500 nM | Cn1cc(-c2ncc(C(=O)N3CCc4[nH]cnc4[C@H]3c3cc4ccccc4cn3)o2)cn1 [Example 311, (R)-(4-(isoquinolin-3-yl)-6,7-dihydro-1H-imidazo[4,5-c]pyridin-5(4H)-yl)(2-(1-methyl-1H-pyrazol-4-yl)oxazol-5-yl)methanone] |
| 1000 to 5000 nM | O=C(c1cnc(-c2ccc(F)cn2)s1)N1CCc2[nH]cnc2[C@@H]1c1cc2ccccc2cn1 [Example 313, (S)-(2-(5-fluoropyridin-2-yl)thiazol-5-yl)(4-(isoquinolin-3-yl)-6,7-dihydro-1H-imidazo[4,5-c]pyridin-5(4H)-yl)methanone] |
| < 500 nM | COCc1ccc2c(C(=O)N3CCc4[nH]cnc4[C@H]3c3cc4ccccc4cn3)cnn2c1 [Example 314, (R)-(4-(isoquinolin-3-yl)-6,7-dihydro-1H-imidazo[4,5-c]pyridin-5(4H)-yl)(6-(methoxymethyl)pyrazolo[1,5-a]pyridin-3-yl)methanone] |
| > 5000 nM | COCc1ccc2c(C(=O)N3CCc4[nH]cnc4[C@@H]3c3cc4ccccc4cn3)cnn2c1 [Example 315, (S)-(4-(isoquinolin-3-yl)-6,7-dihydro-1H-imidazo[4,5-c]pyridin-5(4H)-yl)(6-(methoxymethyl)pyrazolo[1,5-a]pyridin-3-yl)methanone] |
| < 500 nM | CC(C)(C)c1ncc(C(=O)N2CCc3[nH]cnc3[C@H]2c2cc3ccccc3cn2)s1 [Example 316, (R)-(2-(tert-butyl)thiazol-5-yl)(4-(isoquinolin-3-yl)-6,7-dihydro-1H-imidazo[4,5-c]pyridin-5(4H)-yl)methanone] |
| > 5000 nM | CC(C)(C)c1ncc(C(=O)N2CCc3[nH]cnc3[C@@H]2c2cc3ccccc3cn2)s1 [Example 317, (S)-(2-(tert-butyl)thiazol-5-yl)(4-(isoquinolin-3-yl)-6,7-dihydro-1H-imidazo[4,5-c]pyridin-5(4H)-yl)methanone] |
| < 500 nM | Cc1nnc(C(=O)N2CCc3[nH]cnc3[C@H]2c2cc3ccccc3cn2)o1 [Example 318, (R)-(4-(isoquinolin-3-yl)-6,7-dihydro-1H-imidazo[4,5-c]pyridin-5(4H)-yl)(5-methyl-1,3,4-oxadiazol-2-yl)methanone] |
| > 5000 nM | Cc1nnc(C(=O)N2CCc3[nH]cnc3[C@@H]2c2cc3ccccc3cn2)o1 [Example 319, (S)-(4-(isoquinolin-3-yl)-6,7-dihydro-1H-imidazo[4,5-c]pyridin-5(4H)-yl)(5-methyl-1,3,4-oxadiazol-2-yl)methanone] |
| < 500 nM | O=C(c1cnco1)N1CCc2[nH]cnc2[C@H]1c1cc2ccccc2cn1 [Example 320, (R)-(4-(isoquinolin-3-yl)-6,7-dihydro-1H-imidazo[4,5-c]pyridin-5(4H)-yl)(oxazol-5-yl)methanone] |
| 1000 to 5000 nM | O=C(c1cnco1)N1CCc2[nH]cnc2[C@@H]1c1cc2ccccc2cn1 [Example 321, (S)-(4-(isoquinolin-3-yl)-6,7-dihydro-1H-imidazo[4,5-c]pyridin-5(4H)-yl)(oxazol-5-yl)methanone] |
| < 500 nM | Cn1cc(-c2nnc(C(=O)N3CCc4[nH]cnc4[C@H]3c3cc4ccccc4cn3)o2)cn1 [Example 322, (R)-(4-(isoquinolin-3-yl)-6,7-dihydro-1H-imidazo[4,5-c]pyridin-5(4H)-yl)(5-(1-methyl-1H-pyrazol-4-yl)-1,3,4-oxadiazol-2-yl)methanone] |
